Source: US8222008B2, “Methods and compositions for treating cancer” (The Administrators of The Tulane Educational Fund, priority 2003, dated 2012)
Marks after values point to notes of the source that are not given here.

Tests used:
Format in all cases: cell-based, human
[1] = test system: MDA-MB-231 (ER−); test: Apoptosis in breast cancer cell lines, CaspACE assay with flow cytometry; conditions: Tamoxifen 100 μM, 16 hours
From the text: (§1) The apoptotic effect of CDME was compared to that of tamoxifen using the CaspACE™ assay system (Promega) and conventional flow cytometry techniques.
(§2) All cell lines were obtained from the American Type Culture Collection, P.O. Box 1549, Manassas, Va., 20108 unless otherwise indicated. The cell lines studied were estrogen receptor-negative breast cancer cell lines MDA-MB-231 (ATCC Accession No. HTB-26) and MDA-MB-468 (ATCC Accession No. HTB-132) and estrogen receptor-positive breast cancer cell lines, MCF-7 (ATCC Accession No. HTB-22) and T-47D (ATCC Accession No. HTB-133).
(§3) All cell lines were grown on the bottom of 12-well flasks in Gibco RPMI-1640, until they reached the confluency of about 50%. After that, the medium was exchanged with DMEM (Sigma, D-5030), supplemented with 10% charcoal-treated FBS.
(§4) After four days (at confluency of about 75%), cells were treated by exposure to either CDME (500 μM) or tamoxifen (100 μM) or neither for 16 hours at 37° C. CaspACE™ assay analysis of the treated and control cells was performed as described in Example 2 and measured via flow cytometry. Note that the dosage of tamoxifen was a maximum positive control dose, higher than that normally administered for chemotherapy.

[2] = test system: MDA-MB-468 (ER−); test: as above; conditions: Tamoxifen 100 μM, 16 hours
From the text: as §1, §2, §3, §4

[3] = test system: T-47D (ER+); test: as above; conditions: Tamoxifen 100 μM, 16 hours
From the text: as §1, §2, §3, §4

[4] = test system: MCF-7 (ER+); test: as above; conditions: Tamoxifen 100 μM, 16 hours
From the text: as §1, §2, §3, §4

[5] = test system: GM05399 normal fibroblasts; test: Apoptosis by apoptotic triggers, TUNEL assay; conditions: TNF-a 30 ng/mL with actinomycin D 2.5 μg/mL for 16 hours
Protocol: (§5) Normal and cystinotic fibroblasts were purchased from the Coriell Mutant Cell Repository, and cultured in Coon modification of Ham F12 medium, supplemented with 10% fetal calf serum (FCS). Renal proximal tubule epithelial (RPTE; Biowhittaker Corp.) were cultured in renal epithelial basal medium supplemented with one Singlequots™ kit (Biowhittaker) per 500 mL to make renal epithelial growth media (REGM, Biowhittaker). Fibroblasts and RPTE were maintained in a 5% carbon dioxide, 95% air, humidified incubator at 37° C. (Thoene J. G. et al, 1976 J. Clin. Invest, 58:180-189).
(§6) Induction of apoptosis and assays for its detection were performed using commercially available reagents. Normal and cystinotic fibroblasts were matched for passage number (±3) and cell density, and then exposed to an apoptotic trigger. One apoptotic trigger used was TNF-a (30 ng/mL) with actinomycin D (2.5 μg/mL) for 16 hours. Another trigger was anti-Fas antibody (500 ng/mL) with actinomycin D (2.5 μg/mL) for 16 hours. A third trigger to induce apoptosis in the cells was Ultraviolet B light (60 mJ). See, e.g., previously described protocols of Aggarwal B B, 1992 Immunol. Ser., 56:61-78; Higuchi M. et al, 1995 J. Immunol. Meth., 178:173-181; Itoh N, et al, 1991 Cell, 66:233-243; Itoh N. et al, 1993 J. Biol. Chem., 268:10932-10937. Serum withdrawal was also used as a apoptotic stimulus (Lieberthal W, et al, 1998 Am. J. Physiol. 275:F691-F702; Verzola D. et al, 2001 Exp Nephrol., 9:366-371; Iglesias J. et al, 1999 Am. J. Physiol. 277:F711-F712; Kulkarni G V, et al, 1994 J. Cell Sci., 107:1169-1179), in which case the cells were incubated in F12 medium without serum for 24 hours and then analyzed for apoptosis.
(§7) 2. TUNEL Assay • The TUNEL assay employs terminal deoxynucleotidyl transferase (TdT) to label the ends of double stranded DNA breaks, which occur in apoptotic cells, with FITC-conjugated dUTP. Cells were fixed in 4% buffered formalin, washed, incubated in permeabilization solution (0.1% Triton X-100 in 0.1% Na Citrate) for 2 minutes on ice and then stained with 25 μL of TdT/45 μL of labeled dNTP mix for 40 minutes at 37° C. The cells were visually enumerated by fluorescence microscopy, scoring a minimum of five fields (250 to 300 cells) for fluorescence in triplicate followed by counting all cells in the same field by light microscopy, with a minimum of 750 cells scored per condition. The apoptosis rate is the total number of cells that fluoresce divided by the total cells in the field.
(§8) In another experiment, cells were treated with apoptosis inducers as indicated, stained with TUNEL reagent, and analyzed by florescence microscopy. A minimum of 250 cells were scored per conditions in triplicate. […] P>0.05 for ocular versus normal and intermediate; P=0.01 for ocular versus nephropathic.

[6] = test system: GM00010 normal fibroblasts; test: Apoptosis by apoptotic triggers, TUNEL assay; conditions: TNF-a 30 ng/mL with actinomycin D 2.5 μg/mL for 16 hours
Protocol: as §5, §6, §7, §8

[7] = test system: GM00379 intermediate cystinotic fibroblasts; test: Apoptosis by apoptotic triggers, TUNEL assay; conditions: TNF-a 30 ng/mL with actinomycin D 2.5 μg/mL for 16 hours
Protocol: as §5, §6, §7, §8

[8] = test system: normal fibroblasts (AVG of 2); test: Apoptosis by apoptotic triggers, TUNEL assay; conditions: TNF-a 30 ng/mL with actinomycin D 2.5 μg/mL for 16 hours, AVG of 2 normal lines
Protocol: as §5, §6, §7, §8

[9] = test system: GM00046 nephropathic cystinotic fibroblasts; test: Apoptosis by apoptotic triggers, TUNEL assay; conditions: TNF-a 30 ng/mL with actinomycin D 2.5 μg/mL for 16 hours
Protocol: as §5, §6, §7, §8

[10] = test system: GM00008 nephropathic cystinotic fibroblasts; test: Apoptosis by apoptotic triggers, TUNEL assay; conditions: TNF-a 30 ng/mL with actinomycin D 2.5 μg/mL for 16 hours
Protocol: as §5, §6, §7, §8

[11] = test system: GM00760 nephropathic cystinotic fibroblasts; test: Apoptosis by apoptotic triggers, TUNEL assay; conditions: TNF-a 30 ng/mL with actinomycin D 2.5 μg/mL for 16 hours
Protocol: as §5, §6, §7, §8

[12] = test system: nephropathic cystinotic fibroblasts (AVG of 3); test: Apoptosis by apoptotic triggers, TUNEL assay; conditions: TNF-a 30 ng/mL with actinomycin D 2.5 μg/mL for 16 hours, AVG of 3 nephropathic lines
Protocol: as §5, §6, §7, §8

[13] = test system: GM08761 ocular cystinotic fibroblasts; test: Apoptosis by apoptotic triggers, TUNEL assay; conditions: TNF-a 30 ng/mL with actinomycin D 2.5 μg/mL for 16 hours
Protocol: as §5, §6, §7, §8

[14] = test system: cathepsin B in normal and nephropathic cystinotic fibroblasts; test: Cathepsin B localisation by immunohistochemistry; conditions: after TNF-a exposure; Lysotracker red and anti-cathepsin B staining
Protocol: Cells were stained by Lysotracker® Red stain (Molecular Probes) for 5 minutes at room temperature, washed twice in PBS, and then fixed in 4% formalin for 1 hour. Slides were immersed in blocking buffer (PBS, pH 7.2, 0.5% Carnation® dry milk, 0.1% Triton® X-100 reagent) for 20 minutes at room temperature, washed twice in PBS, and then incubated with primary antibody (anti-cathepsin B, Santa Cruz Biotechnologies) diluted 1:100 for 2 hours at room temperature, followed by incubation with secondary antibody (FITC-conjugated rabbit anti-goat, Santa Cruz Biotechnologies), at 4° C. overnight. Slides were washed twice with PBS and then sealed with cover slips and viewed using a Leica® DMRX deconvoluting microscope.
To substantiate that lysosomes are perneabilized by TNF-a (Guicciardi M, 2000J. Clin. Invest., 106:1127-1137) under these conditions, cathepsin B (a lysosomal cysteine protease) was localized by immunohistochemistry in normal and nephropathic cystinotic cells before and after induction of apoptosis. Fibroblasts were maintained under normal culture conditions, exposed to TNF-a, loaded with Lysotracker® red reagent, fixed, and stained for cathepsin B using an anti-cathepsin B antibody. Photographs were made via a deconvoluting microscope.
Lysosomes were identified with Lysotracker red dye. […]

[15] = test system: GM05399 normal fibroblasts; test: Apoptosis by apoptotic triggers, CaspACE assay; conditions: TNF-a 30 ng/mL with actinomycin D 2.5 μg/mL for 16 hours
Protocol: as §5, §6
(§9) 1. The CaspACE Assay • CaspACE (Promega) is an FITC-conjugated cell-permeable form of the pan-caspase inhibitor zVAD-Fmk, which binds to activated caspase(s). Cells were incubated in FITC-VAD-Fmk-containing medium (10 μM for 30 minutes at 37° C.), washed, and then fixed in 10% buffered formalin (30 minutes at room temperature) before analysis. The cells were visually enumerated by fluorescence microscopy, scoring a minimum of five fields (250 to 300 cells) for fluorescence in triplicate followed by counting all cells in the same field by light microscopy, with a minimum of 750 cells scored per condition. The apoptosis rate is the total number of cells that fluoresce divided by the total cells in the field.
(§10) Apoptosis was induced in three nephropathic cystinotic, two normal, one intermediate cystinotic, and one ocular cystinotic fibroblast lines by three separate inducers. In one experiment, cells were treated with apoptosis inducers as indicated above. Apoptosis in these lines was assessed by CaspACE assay and analyzed by fluorescence microscopy. A minimum of 250 cells was scored per condition, in triplicate. Thus at least 750 cells were scored precondition. T-statistics: P<0.001 for average nephropathic versus average normal. P<0.05 for ocular versus nephropathic. P>0.05 for ocular versus normal, intermediate versus nephropathic, and intermediate versus normal.

[16] = test system: GM00010 normal fibroblasts; test: Apoptosis by apoptotic triggers, CaspACE assay; conditions: TNF-a 30 ng/mL with actinomycin D 2.5 μg/mL for 16 hours
Protocol: as §5, §6, §9, §10

[17] = test system: GM00379 intermediate cystinotic fibroblasts; test: Apoptosis by apoptotic triggers, CaspACE assay; conditions: TNF-a 30 ng/mL with actinomycin D 2.5 μg/mL for 16 hours
Protocol: as §5, §6, §9, §10

[18] = test system: normal fibroblasts (AVG of 2); test: Apoptosis by apoptotic triggers, CaspACE assay; conditions: TNF-a 30 ng/mL with actinomycin D 2.5 μg/mL for 16 hours, AVG of 2 normal lines
Protocol: as §5, §6, §9, §10

[19] = test system: GM00046 nephropathic cystinotic fibroblasts; test: Apoptosis by apoptotic triggers, CaspACE assay; conditions: TNF-a 30 ng/mL with actinomycin D 2.5 μg/mL for 16 hours
Protocol: as §5, §6, §9, §10

[20] = test system: GM00008 nephropathic cystinotic fibroblasts; test: Apoptosis by apoptotic triggers, CaspACE assay; conditions: TNF-a 30 ng/mL with actinomycin D 2.5 μg/mL for 16 hours
Protocol: as §5, §6, §9, §10

[21] = test system: GM00760 nephropathic cystinotic fibroblasts; test: Apoptosis by apoptotic triggers, CaspACE assay; conditions: TNF-a 30 ng/mL with actinomycin D 2.5 μg/mL for 16 hours
Protocol: as §5, §6, §9, §10

[22] = test system: nephropathic cystinotic fibroblasts (AVG of 3); test: Apoptosis by apoptotic triggers, CaspACE assay; conditions: TNF-a 30 ng/mL with actinomycin D 2.5 μg/mL for 16 hours, AVG of 3 nephropathic lines
Protocol: as §5, §6, §9, §10

[23] = test system: GM08761 ocular cystinotic fibroblasts; test: Apoptosis by apoptotic triggers, CaspACE assay; conditions: TNF-a 30 ng/mL with actinomycin D 2.5 μg/mL for 16 hours
Protocol: as §5, §6, §9, §10

## CC/C(=C(\c1ccccc1)c1ccc(OCCN(C)C)cc1)c1ccccc1 [Tamoxifen, tamoxifen, reference compound]
[1]
  percent of apoptotic cells (±S.D.): 98.92 ± 0.99%
[2]
  percent of apoptotic cells (±S.D.): 90.37 ± 1.70%
[3]
  percent of apoptotic cells (±S.D.): 99.91 ± 0.08%
[4]
  percent of apoptotic cells (±S.D.): 98.47 ± 0.53%

## TNF-a
[5]
  % Apoptosis: 11.4%
[6]
  % Apoptosis: 12.8%
[7]
  % Apoptosis: 8.2%
[8]
  % Apoptosis: 12.1%
[9]
  % Apoptosis: 15.3* %
[10]
  % Apoptosis: 17.1%
[11]
  % Apoptosis: 19.3%
[12]
  % Apoptosis: 17.2%
[13]
  % Apoptosis: 5.5%
[14]
  localisation of cathepsin B: translocation of cathepsin B from a lysosomal location to a diffuse cytosolic location
[15]
  % Apoptosis: 6.3%
[16]
  % Apoptosis: 9.2%
[17]
  % Apoptosis: 11.4%
[18]
  % Apoptosis: 7.8%
[19]
  % Apoptosis: 16.1%
[20]
  % Apoptosis: 14.9%
[21]
  % Apoptosis: 13.5%
[22]
  % Apoptosis: 14.8%
[23]
  % Apoptosis: 8.2%
